Test results: patent US7217505B2, “Method for determining whether condition is symptom of metabolic syndrome” (Cortendo AB, priority 1998, dated 2007)
Where “and” joins values, the source holds several entries; their conditions need not be identical. Identical values can stand only once.

System: autoproduction of cortisol
Assay: dexamethasone inhibition test: serum cortisol the morning after low oral doses of dexamethasone
[1] = 'dangerously' belly fat individuals

Compound: C[C@@H]1C[C@H]2[C@@H]3CCC4=CC(=O)C=C[C@]4(C)[C@@]3(F)[C@@H](O)C[C@]2(C)[C@@]1(O)C(=O)CO [dexamethasone]
- dose from which inhibition could be measured [1]: 0.25 mg
- dose of maximum inhibition [1]: 0.5 to 1 mg
- critical doses with significant differences between belly fat and other individuals (about 20 individuals, most distinct difference at 0.5 mg): 0.125 mg and 0.5 mg
- dose at which inhibition of the autoproduction of cortisol was already obtained (normal weight individuals and those with general overweight but without belly fatness): 0.05 mg
- dose of maximum inhibition of the autoproduction of cortisol (normal weight individuals and those with general overweight but without belly fatness (for a few also at 0.5 mg)): 1 mg
